The values that follow come from PubChem BioAssay AID232 (DTP/NCI, 2004).

The test system of the test is Gardner 6C3HED lymphosarcoma ip, C3AKF1 mice, survival T/C. Nature of the test: NCI In Vivo Anticancer Drug Screen. Data for tumor model Lymphosarcoma Gardner 6C3HED (intraperitoneal) in C3AKF1 (CHKRF1) mice. To be noted: endpoint: survival time, mean or median, schedule: Q01DX010 (ip), vehicle: saline, higher = longer survival. The procedure:
The antitumor activity of compounds was measured in mice bearing transplantable tumors. Survival or tumor size were measured and the results are expressed as the measurement made in the treated group (T) divided by the measurement made in the vehicle treated control group (C). The tumor model used in this assay is Lymphosarcoma Gardner 6C3HED (intraperitoneal) in C3AKF1 (CHKRF1) mice

Values joined by “and” are separate entries in the source; they are usually repeats but may differ in a detail not shown here. Equal entries are not always repeated. Toxic doses and inconclusive results are not listed.

As to `C[n+]1c2ccccc2nc2c(N)cc(N)cc21`, the T/C (dose: 12.0 mg/kg/injection) was 113 % of control, the T/C (dose: 18.0 mg/kg/injection) was 122 % of control and the T/C (dose: 40.0 mg/kg/injection) is 113 % of control.

Turning to `CS(=O)(=O)OCCN(CCOS(C)(=O)=O)c1ccc(N=O)cc1`, the T/C (dose: 1.0 mg/kg/injection) was 107 % of control.

As for `CCN(CC)c1ccc2cc3ccc(=[N+](CC)CC)cc-3oc2c1`, the T/C was 100 % of control and 109 % of control (dose: 1.0 mg/kg/injection); 100 % of control and 122 % of control (dose: 2.0 mg/kg/injection); 100 % of control and 104 % of control (dose: 4.0 mg/kg/injection); 95 % of control and 100 % of control (dose: 8.0 mg/kg/injection).

Take `COS(C)(=O)=O`: the T/C is, setting by setting: (dose: 12.5 mg/kg/injection) 111 % of control; (dose: 50.0 mg/kg/injection) 300 % of control; (dose: 100.0 mg/kg/injection) 176 % of control.

`O[C@H](CN1CC1)[C@@H](O)CN1CC1`: the T/C runs as follows: (dose: 62.5 micrograms/kg/injection) 96 % of control; (dose: 125.0 micrograms/kg/injection) 92 % of control; (dose: 250.0 micrograms/kg/injection) 155 % of control; (dose: 500.0 micrograms/kg/injection) 151 % of control.

As to `S=P(N1CC1)(N1CC1)N1CC1`, the T/C (dose: 1.0 mg/kg/injection) was 115 % of control and 120 % of control; the T/C (dose: 2.0 mg/kg/injection) is 120 % of control; the T/C (dose: 4.0 mg/kg/injection) is 160 % of control; the T/C (dose: 8.0 mg/kg/injection) was 90 % of control and 110 % of control.

Turning to `Nc1nc(SCc2ccccc2)c2[nH]cnc2n1`, the T/C (dose: 8.0 mg/kg/injection) was 95 % of control and 100 % of control; the T/C (dose: 16.0 mg/kg/injection) is 95 % of control and 104 % of control; the T/C (dose: 32.0 mg/kg/injection) was 90 % of control and 91 % of control and 104 % of control; the T/C (dose: 64.0 mg/kg/injection) was 87 % of control and 100 % of control (2×).

As to `C[C@@H]1C[C@@H]([C@H](O)CC2CC(=O)NC(=O)C2)C(=O)[C@@H](C)C1`, the T/C reads like this: (dose: 5.0 mg/kg/injection) 95 % of control and 104 % of control; (dose: 10.0 mg/kg/injection) 90 % of control and 100 % of control; (dose: 20.0 mg/kg/injection) 91 % of control and 118 % of control.

With `N#[N+]c1cnc([O-])[nH]c1=O`, the T/C runs as follows: (dose: 2.5 mg/kg/injection) 175 % of control; (dose: 5.0 mg/kg/injection) 158 % of control; (dose: 10.0 mg/kg/injection) 162 % of control.

As for `N#CCSc1ncnc2nc[nH]c12`, the T/C is, setting by setting: (dose: 15.0 mg/kg/injection) 100 % of control and 111 % of control; (dose: 30.0 mg/kg/injection) 100 % of control; (dose: 60.0 mg/kg/injection) 95 % of control and 114 % of control; (dose: 120.0 mg/kg/injection) 92 % of control and 95 % of control.

Consider `OCC1OC(n2cnc3c(Cl)ncnc32)C(O)C1O` (stereo not given), for which the T/C by setting is: (dose: 62.5 mg/kg/injection) 95 % of control; (dose: 125.0 mg/kg/injection) 90 % of control; (dose: 250.0 mg/kg/injection) 90 % of control; (dose: 500.0 mg/kg/injection) 90 % of control and 100 % of control.

Take `CCN(CC)CCNc1ccc(C)c2sc3ccccc3c(=O)c12`: the T/C was 100 % of control (dose: 12.5 mg/kg/injection); 114 % of control (dose: 25.0 mg/kg/injection); 91 % of control and 114 % of control (dose: 50.0 mg/kg/injection).
